This is an account of results in patent US4461772A, “Additives for improving ruminant feed utilization” (SDS Biotech Corporation, priority 1983, dated 1984).

For test [1], the system named is rumen fluid. Nature of the test: In vitro rumen fluid incubation (18 h): volatile fatty acids and methane inhibition. The class given is cell-based, sheep. Conditions: 39° C.; for C2 (acetate), Ratio Treated to Control / C3 (propionate), Ratio Treated to Control / C4 (butyrate), Ratio Treated to Control / Total VFA, Ratio Treated to Control: 50.0 ppm, pH 7.0; for inhibition at 50 ppm: Ovis aries, vs negative control. The protocol: Below is set forth the procedure followed for testing the compounds of the present invention in vitro. For these studies, rumen fistulated sheep were fed a concentrate diet which constituted 3 parts chopped corn and cob and 1 part alfalfa pellets.
1. Rumen fluid was removed from a fistulated sheep and strained through 4 layers of cheese cloth to remove large feed particles.
2. One part rumen fluid was added to 3 parts of modified McDougal's Artificial Saliva, the pH was adjusted to 7.0 and the saliva solution was prewarmed to 39° C. in a water bath and gassed with CO2.
(a) Modified McDougal Artificial Saliva composition:
To prepare (a), (i) 9.8 g NaHCO3, 11.7 g KHCO3, 5.1 g NaH2 PO4 and 4.08 g KH2 PO4 were diluted with two (2) liters of distilled H2 O; (ii) 20 mL of 100X salt solution was diluted to 1.33 l with tap H2 O; and (iii) mix (i) with (ii) to prepare the modified McDougal Artificial Saliva.
3. Add 0.01 g concentrate feed/1 mL of buffered rumen fluid (the buffered rumen fluid with concentrate should be stirred at all times to prevent the concentrate from settling).
4. Dispense 20 mL of buffered rumen fluid into 30 mL serum bottles that are being gassed with CO2. (A manifold that gases 12 bottles at a time was used.) The bottles should be in a 39° C. H2 O bath.
5. The test compounds, i.e., the compounds of the present invention, were first added to the bottles. After the addition of the buffered rumen fluid to all 12 bottles, the gassing cannulae were quickly removed and a butyl rubber stopper was inserted in each bottle. An aluminum seal was then placed on each bottle and crimped tight.
6. The sealed bottles were removed from the water bath, shaken and placed in a 39° C. incubator for 18 hours.
7. After the 18-hour incubation, the bottles were removed from the incubator and the head space gas was analyzed using a gas partitioner.
8. Four mL of rumen fluid was removed from each bottle for volatile fatty acid (VFA) analysis.
(a) The 4 mL sample was added to a centrifuge tube to which had previously been added 0.04 mL of 50 percent H2 SO4 and 1 mL 2-ethylbutyric acid (concentration 2 mL of 2-ethylbutyric acid/500 mL H2 O v/v).
(b) The mixture from (a) was centrifuged at 10000 xg for 20 minutes.
(c) The supernatant was removed and analyzed by gas-liquid chromatography. The above procedures were followed in all trials for testing the compounds of the present invention.

In test [2] the test system is rumen. Nature of the test: In vivo rumen VFA trial in rumen fistulated sheep (90 days). The settings on record: 90 day trial average. From the text: Eight rumen fistulated sheep were used as test animals. Two sheep were alotted to each of three treatments and a control for each test. Group I was always the control group in each of the different trials. Groups II through IV had varying concentrations of compounds of the present invention added to the animals' feed. The feed ration in each trial constituted 3 parts chopped corn and cob and 1 part alfalfa pellets. Each sheep was offered 800 g daily of the feed in two equal portions. The particular compound and vitamin premix were mixed with chopped corn and cob. Any feed refusals were weighed back before each feeding and discarded. To prevent any mold growth, the feed was stored under refrigeration.
All animals in the various treatment groups were sampled for VFA's twice a week. Equal volumes of rumen fluid from each animal within a treatment were pooled for treatment VFA analysis. Fluid from individual animals was also analyzed for VFA. Individual animal VFA's within a treatment were averaged. This value was then averaged with pooled treatment VFA yielding the final treatment VFA value. All ratios and statistics were calculated using this final value. VFA's were calculated as the ratio treated to its respective pretreatment value. Each of the trials lasted for 90 days.

Test [3] concerns propionate production in the rumen. The settings on record: oral administration to ruminants, Raun patents; cited from earlier work.
[4] abbreviates: Table III, Group II, level 0.05 % of feed (approx. 60 ppm in rumen).
The mark [5] stands for this setting: Table III, Group III, level 0.075 % of feed.
Where [6] appears, read: Table III, Group IV, level 0.025 % of feed.
The mark [7] stands for this setting: Table II, Group II, level 0.01 % of feed.
Setting [8] is: Table II, Group III, level 0.05 % of feed (approx. 60 ppm in rumen).
Where [9] appears, read: Table II, Group IV, level 0.025 % of feed.

As for `O=C(CCl)NCCc1nnn[nH]1`, in test [1], the “C2 (acetate), Ratio Treated to Control” value is 0.91; the “C3 (propionate), Ratio Treated to Control” value is listed as 1.16; the “C4 (butyrate), Ratio Treated to Control” value is given as 1.05; the “Total VFA, Ratio Treated to Control” value is listed as 1.02. The compound further displayed an inhibition at 50 ppm in test [1] of 4.9%.
As to `Cc1ccc(S(=O)(=O)OCCc2nnn[nH]2)cc1`, in test [1], the “C2 (acetate), Ratio Treated to Control” value was 0.92; the “C3 (propionate), Ratio Treated to Control” value is 1.23; the “C4 (butyrate), Ratio Treated to Control” value is 0.95; the “Total VFA, Ratio Treated to Control” value is given as 1.07. In test [1], the inhibition at 50 ppm was determined as 8%.
For `CS(=O)(=O)NCCC#N` [CNCH2 CH2 NHSO2 CH3], in test [1], the “C2 (acetate), Ratio Treated to Control” value was 0.7; the “C3 (propionate), Ratio Treated to Control” value was found to be 1.58; the “C4 (butyrate), Ratio Treated to Control” value is 1.13; the “Total VFA, Ratio Treated to Control” value is 0.97. For the same compound, in test [1], 50 ppm produced 73.4% inhibition.
For `BrCCc1nnn[nH]1` [TCH2 CH2 Br], in test [1], the “C2 (acetate), Ratio Treated to Control” value came out at 0.73; the “C3 (propionate), Ratio Treated to Control” value is given as 1.44; the “C4 (butyrate), Ratio Treated to Control” value was 1.25; the “Total VFA, Ratio Treated to Control” value was found to be 0.91. The compound also gave an inhibition at 50 ppm in test [1] of 91.3%.
On to `ClCCc1nnn[nH]1` [TCH2 CH2 Cl, 5-(2-Chloroethyl)Tetrazole], for which, in test [1], the “C2 (acetate), Ratio Treated to Control” value is 0.76; the “C3 (propionate), Ratio Treated to Control” value is 1.48; the “C4 (butyrate), Ratio Treated to Control” value came out at 0.92; the “Total VFA, Ratio Treated to Control” value turned out to be 1.03. In test [1], this compound yielded an inhibition at 50 ppm of 74.6%. For the same compound, in test [2] (setting [4]), the “C2 (acetate), Ratio of Treatment VFA to Pretreatment VFA” value (“C2 (acetate), Ratio of Treatment VFA” below) turned out to be 0.97; the “C3 (propionate), Ratio of Treatment VFA to Pretreatment VFA” value (“C3 (propionate), Ratio of Treatment VFA” for short) is 1.06; the “C4 (butyrate), Ratio of Treatment VFA to Pretreatment VFA” value (“C4 (butyrate), Ratio of Treatment VFA” for short) is 1.11; the “Total VFA, Ratio of Treatment VFA to Pretreatment VFA” value (shortened to “Total VFA, Ratio of Treatment VFA”) came out at 0.88. In test [2] (setting [5]), the “C2 (acetate), Ratio of Treatment VFA” value is reported as 0.92; the “C3 (propionate), Ratio of Treatment VFA” value was 1.24; the “C4 (butyrate), Ratio of Treatment VFA” value was 1.05; the “Total VFA, Ratio of Treatment VFA” value stood at 0.89. In test [2] (setting [6]), the “C2 (acetate), Ratio of Treatment VFA” value worked out at 0.97; the “C3 (propionate), Ratio of Treatment VFA” value is recorded as 1.00; the “C4 (butyrate), Ratio of Treatment VFA” value stood at 1.20; the “Total VFA, Ratio of Treatment VFA” value is listed as 1.05.
For the compound `CS(=O)(=O)NCCc1nnn[nH]1` [TCH2 CH2 NHSO2 CH3], in test [1], the “C2 (acetate), Ratio Treated to Control” value is 0.99; the “C3 (propionate), Ratio Treated to Control” value was determined as 1.04; the “C4 (butyrate), Ratio Treated to Control” value is reported as 0.99; the “Total VFA, Ratio Treated to Control” value is on record as 1.02. The inhibition at 50 ppm in test [1] was 0.7%.
In the case of `ClCc1nnn[nH]1` [TCH2 Cl, 5-Chloromethyltetrazole], in test [1], the “C2 (acetate), Ratio Treated to Control” value was determined as 0.74; the “C3 (propionate), Ratio Treated to Control” value is on record as 1.49; the “C4 (butyrate), Ratio Treated to Control” value turned out to be 0.95; the “Total VFA, Ratio Treated to Control” value came out at 0.96. Moreover, the inhibition at 50 ppm in test [1] was determined as 96.8%. Besides, in test [2] (setting [7]), the “C2 (acetate), Ratio of Treatment VFA” value was found to be 1.01; the “C3 (propionate), Ratio of Treatment VFA” value is on record as 0.98; the “C4 (butyrate), Ratio of Treatment VFA” value worked out at 1.02; the “Total VFA, Ratio of Treatment VFA” value turned out to be 0.96. Moreover, in test [2] (setting [8]), the “C2 (acetate), Ratio of Treatment VFA” value is 0.97; the “C3 (propionate), Ratio of Treatment VFA” value turned out to be 1.05; the “C4 (butyrate), Ratio of Treatment VFA” value is 1.04; the “Total VFA, Ratio of Treatment VFA” value turned out to be 0.88. Besides, in test [2] (setting [9]), the “C2 (acetate), Ratio of Treatment VFA” value is recorded as 0.96; the “C3 (propionate), Ratio of Treatment VFA” value is reported as 1.10; the “C4 (butyrate), Ratio of Treatment VFA” value turned out to be 1.05; the “Total VFA, Ratio of Treatment VFA” value is reported as 0.93.
In the case of `CO[C@H]1CC[C@@H](O[C@H]2C[C@H]([C@]3(C)CC[C@]4(C[C@H](O)[C@@H](C)[C@@H]([C@@H](C)/C=C(\C)C(=O)[C@H](C)C[C@H](C)C(=O)O)O4)O3)O[C@]3(O[C@@H]([C@H]4O[C@@](O)(CO)[C@H](C)C[C@@H]4C)C[C@@H]3C)[C@@H]2C)O[C@@H]1C` [dianemycin], the “propionate production (in words)” value in test [3] is “propionate production could be increased”.
Turning to `CC[C@@]1([C@@H]2O[C@@H]([C@H]3O[C@@](O)(CO)[C@H](C)C[C@@H]3C)C[C@@H]2C)CC[C@H]([C@]2(C)CC[C@]3(C[C@H](O)[C@@H](C)[C@@H]([C@@H](C)[C@@H](OC)[C@H](C)C(=O)O)O3)O2)O1` [monensin], the “propionate production (in words)” value in test [3] is “propionate production could be increased”.
Regarding `C=C(NC(=O)C(=C)NC(=O)c1csc(C2=N[C@@H]3c4csc(n4)[C@H]4NC(=O)c5csc(n5)[C@H]([C@](C)(O)[C@@H](C)O)NC(=O)[C@H]5CSC(=N5)/C(=C/C)NC(=O)[C@H]([C@@H](C)O)NC(=O)c5csc(n5)[C@]3(CC2)NC(=O)[C@H](C)NC(=O)C(=C)NC(=O)[C@H](C)NC(=O)[C@H]([C@@H](C)CC)N[C@@H]2C=Cc3c([C@H](C)O)cc(nc3[C@H]2O)C(=O)O[C@@H]4C)n1)C(N)=O` [thiostrepton], the “propionate production (in words)” value in test [3] is reported as “propionate production could be increased”.

Broadly, the inhibition is the drop in the measured response relative to a control, in per cent. Lower therefore signals little suppression.
